Common to all, as to type: in vivo, rat
The test system of one assay is osteopontin. Nature of the assay: Assay A: osteopontin immunostaining of hearts. Particulars: angiotensin II-infused, saline-drinking Wistar rats; eplerenone 100 mpk; aldosterone replacement in adrenalectomized rats.
Assay [1] can be described thus: Assay A: angiotensin II infusion model, urinary Na+/K+ ratio (natriuresis index). The following applies: Wistar rats, 1% NaCl, angiotensin II 25 ng/min sc; eplerenone 100 mpk. The text has this:
Electrolyte excretion. The ratio between daily urinary Na^+ excretion and urinary K^+ excretion (U Na^+/K^+ ratio) was used as an index for natriuresis. Urinary Na^+/K^+ ratio was similar in all groups before the start of the treatments, and increased similarly in all animals upon initiation of the high salt diet.

The next assay deals with cyclooxygenase-2 (COX-2). Nature of the assay: Assay A: cyclooxygenase-2 immunostaining of hearts. The following applies: angiotensin II-infused, saline-drinking Wistar rats, eplerenone 100 mpk, aldosterone replacement in adrenalectomized rats.
The nature of assay [2]: Assay A: angiotensin II infusion model, systolic blood pressure by tail-cuff. The following applies: Wistar rats, 1% NaCl to drink, angiotensin II 25 ng/min sc, 4 weeks; eplerenone 100 mpk; aldosterone given to adrenalectomized, dexamethasone-treated rats.
Assay [3] in a line: Assay A: angiotensin II infusion model, heart histology (hematoxylin&eosin), vascular inflammation and myocardial injury. The following applies: Wistar rats, 1% NaCl, angiotensin II 25 ng/min sc, 4 weeks, 10/group; eplerenone 100 mpk; aldosterone replacement in adrenalectomized rats. The text has this: Assay A: In Vivo Angiotensin II Infusion Model
Male Wistar rats (n=50, 10/group; BW=200 g)
Sacrifice by exanguination after 4 weeks. Blood was be collected in dry tubes for determination of serum electrolytes and in EDTA-containing tubes for measurement of aldosterone and corticosterone levels
Hearts were stained with hematoxylin&eosin and have been analyzed for determination of morphologic abnormalities (i.e. necrosis, vascular injury).

The text below walks through data of patent US20040037806A1, “Aldosterone blocker therapy to prevent or treat inflammation-related disorders” (Pharmacia Corporation, priority 2002, published 2004).

As to “angiotensin II (DRVYIHPF; Angiotensin-2; UniProt P01019 25-32, looked up) [vasoconstrictive octapeptide infused sc via alzet minipump to induce hypertension]”, the “Osteopontin expression in the heart (immunostaining)” value in the assay on osteopontin was “presence of osteopontin in the media of coronary arteries”. For the same substance, the “Urinary Na+/K+ ratio (index for natriuresis)” value in assay [1] is reported as “significantly increased”. For the same substance, the “Cyclooxygenase-2 expression in the heart (immunostaining)” value in the assay with cyclooxygenase-2 (COX-2) is “presence of this enzyme in areas of inflammation around the arteries”; in the assay on cyclooxygenase-2 (COX-2) (listed as Ang II), “induction of COX-2 expression”. Moreover, the Systolic blood pressure entry in assay [2] is given as “increased”. For the same substance, the “Vascular inflammatory lesions in the coronary arteries / heart” value in assay [3] was “Seven out of the ten”.
